Laboratory results published in paper PMC10899635, “Q586B2 is a crucial virulence factor during the early stages of Trypanosoma brucei infection that is conserved amongst trypanosomatids” (Nature Communications, 2024).

Columns and labels:
rmMIF = biological target: T1, rmMIF (Mus musculus, UniProt P34884); assay: dopachrome methyl ester tautomerase assay, OD475 nm; format: biochemical; conditions: 83.3 nM protein preincubated 1 h at 37 °C with 10 µM ISO-1; pH 6.0, 25 °C
T1 construct: gene Mif; commercial recombinant (R&D systems); trimer

Q586B2 = biological target: T2, Q586B2 (Trypanosoma brucei, UniProt Q586B2); assay: as above; format: biochemical; conditions: 83.3 nM protein; 50 mM potassium phosphate, 1 mM EDTA, pH 6.0, 25 °C
T2 construct: gene Tb06.4F7.140; full length, 115 aa, 13 kDa; N-terminal His6- and FLAG-tag (removable); codon-optimized, E. coli WK6
T2 sequence (Q586B2 entry or part of it): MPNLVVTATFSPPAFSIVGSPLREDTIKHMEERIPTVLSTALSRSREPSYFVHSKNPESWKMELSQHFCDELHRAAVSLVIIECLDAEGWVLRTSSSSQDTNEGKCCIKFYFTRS

T1 sequence (P34884 2-115): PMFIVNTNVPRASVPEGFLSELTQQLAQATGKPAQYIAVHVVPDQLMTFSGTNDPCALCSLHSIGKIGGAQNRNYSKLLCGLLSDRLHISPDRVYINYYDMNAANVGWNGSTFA

Structure (SMILES) | % tautomerase activity with 10 μM ISO-1 (rmMIF) | % tautomerase activity of rmMIF (Q586B2)
COC(=O)CC1CC(c2ccc(O)cc2)=NO1 (centres unmarked) [ISO-1] | contrast to MIF, the Q586B2 tautomerase activity was not inhibited by the small molecule ISO-1 | 
COC(=O)[C@@H]1CC2=CC(=O)C(=O)C=C2N1 [dopachrome methyl ester] |  | Q586B2 indeed exhibited a moderate tautomerase activity
